Experimental data from US8592422B2, “Bicyclic triazole and pyrazole lactams as allosteric modulators of mGluR5 receptors” (Vanderbilt University, priority 2010, dated 2013).

Target: T1, human mGluR5a receptor (Homo sapiens, UniProt P41594)
T1 construct: cDNA subcloned into pcDNA3.1(-)
Assay: Cell-based functional Ca2+ mobilization assay (FDSS), potentiation of glutamate EC20 response
Settings: for EC50 / pEC50: HEK cells transfected with human mGluR5 (H10H or H12H), in presence of EC20 glutamate; for EC50: read-out: EC50; for Emax / Emax (%): maximum % effect in concentration-response curve, as percent of response to maximally effective glutamate
Procedure, shortened: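 HEK293A cells stably expressing human mGluR5a (H10H or H12H clones), plated overnight in glutamate-glutamine-free medium, loaded with Ca2+-sensitive dye (e.g. Fluo-4) and read on FDSS.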

T1 sequence (P41594 21-1180 isoform P41594-2 limits assumed): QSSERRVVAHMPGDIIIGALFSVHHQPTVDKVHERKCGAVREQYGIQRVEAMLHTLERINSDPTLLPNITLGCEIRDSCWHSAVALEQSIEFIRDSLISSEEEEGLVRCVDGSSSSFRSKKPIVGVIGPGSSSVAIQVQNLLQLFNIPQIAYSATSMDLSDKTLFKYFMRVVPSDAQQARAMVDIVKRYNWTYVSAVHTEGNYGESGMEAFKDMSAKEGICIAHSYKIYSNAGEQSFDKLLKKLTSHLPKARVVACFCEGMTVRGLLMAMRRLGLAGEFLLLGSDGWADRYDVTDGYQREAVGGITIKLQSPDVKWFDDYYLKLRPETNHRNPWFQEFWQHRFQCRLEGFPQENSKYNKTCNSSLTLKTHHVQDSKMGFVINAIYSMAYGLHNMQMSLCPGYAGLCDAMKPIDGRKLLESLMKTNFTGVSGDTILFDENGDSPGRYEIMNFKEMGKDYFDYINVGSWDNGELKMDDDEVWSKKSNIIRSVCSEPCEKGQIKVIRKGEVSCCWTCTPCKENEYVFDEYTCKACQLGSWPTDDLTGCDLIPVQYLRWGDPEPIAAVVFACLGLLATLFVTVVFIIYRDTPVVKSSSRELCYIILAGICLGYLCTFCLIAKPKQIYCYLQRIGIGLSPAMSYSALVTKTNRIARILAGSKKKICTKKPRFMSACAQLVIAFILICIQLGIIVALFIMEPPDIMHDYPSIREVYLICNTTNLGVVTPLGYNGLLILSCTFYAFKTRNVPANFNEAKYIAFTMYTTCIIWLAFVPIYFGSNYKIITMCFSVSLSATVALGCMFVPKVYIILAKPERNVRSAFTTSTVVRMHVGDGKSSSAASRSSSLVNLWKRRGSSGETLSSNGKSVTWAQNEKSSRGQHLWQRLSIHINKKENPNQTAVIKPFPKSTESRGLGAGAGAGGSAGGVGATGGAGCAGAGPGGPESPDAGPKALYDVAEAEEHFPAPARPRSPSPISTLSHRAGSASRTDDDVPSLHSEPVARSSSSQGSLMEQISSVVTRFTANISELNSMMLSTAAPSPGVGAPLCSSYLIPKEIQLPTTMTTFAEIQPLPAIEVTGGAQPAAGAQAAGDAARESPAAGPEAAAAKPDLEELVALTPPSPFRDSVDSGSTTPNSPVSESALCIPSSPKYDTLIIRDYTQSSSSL

Row | EC50 [nM] | Emax [%] | pEC50 | Emax (%) | SMILES
1 | > 10000 | 39 | – | – | COC[C@@H]1Cn2nc(COc3ccccc3)cc2C(=O)N1c1ccc(F)cc1 [Example 270]
2 | 309 | – | 6.51 | 62 | N#Cc1cccc(OCc2cc3n(n2)CCN(c2ccc(F)cc2)C3=O)c1 [Example 169]
3 | 1300 | 65 | – | – | O=C1c2cc(COc3ccccc3)nn2CCN1c1ccc2ncncc2c1 [Example 363]
4 | 91 | – | 7.04 | 69 | O=C1c2cc(COc3ccccc3)nn2C(F)CN1c1ccc(F)cc1 (single isomer, unassigned) [Example 272]
5 | 389 | 53 | – | – | COc1ncc(C)c(N2CCn3nc(COc4ccccc4)cc3C2=O)n1 [Example 106]
6 | 398 | – | 6.40 | 69 | CN(C)c1nccnc1N1CCn2nc(COc3ccccc3)cc2C1=O [Example 288]
7 | 65 | – | 7.19 | 68 | CC1Cn2nc(COc3ccccc3)cc2C(=O)N1c1ccc(F)cc1 (stereo not shown) [Example 142]
8 | 275 | 56 | – | – | CNc1cccc(N2CCn3nc(COc4ccccc4)cc3C2=O)n1 [Example 278]
9 | 420 | 64 | – | – | O=C1c2cc(COc3ccccc3)nn2CCN1c1cccc(=O)[nH]1 [Example 359]
10 | 1100 | – | 5.97 | 54 | COc1ccccc1N1CCn2nc(COc3ccccn3)cc2C1=O [Example 214]
11 | 2570 | – | 5.59 | 73 | O=C1c2nc(COc3ccccc3)nn2CCN1c1ccc(F)cc1 [Example 5]
12 | 150 | – | 6.82 | 54 | N#Cc1cccc(N2CCn3nc(COc4ccccc4)cc3C2=O)n1 [Example 95]
13 | 200 | – | 6.70 | 52 | CC1CN(c2ccc(F)cn2)C(=O)c2cc(COc3ccc(F)cc3)nn21 (racemic) [Example 237]
14 | 162 | – | 6.79 | 70 | CC1Cn2nc(COc3ccccc3)cc2C(=O)N1c1ccc(F)cc1 (racemic) [Example 18]
15 | 34 | – | 7.47 | 66 | Cc1ccc(N2CCn3nc(COc4ccccc4)cc3C2=O)nc1N(C)C [Example 292]
16 | 130 | 67 | – | – | O=C1c2cc(COc3ccccc3)nn2CCN1c1cc(F)cc2cccnc12 [Example 372]
17 | 150 | – | 6.82 | 67 | CCOc1ccccc1N1CCn2nc(COc3ccccc3)cc2C1=O [Example 57]
18 | 692 | – | 6.16 | 58 | O=C1c2cc(COc3ccccc3)nn2CC(CF)N1c1ccc(F)cc1 (stereo not shown) [Example 269]
19 | 741 | – | 6.13 | 74 | Cc1ccncc1N1CCn2nc(COc3ccccc3)cc2C1=O [Example 32]
20 | 135 | – | 6.87 | 67 | CC1CN(c2ccc(F)cc2)C(=O)c2cc(COc3ccc(F)cc3)nn21 (single isomer, unassigned) [Example 238]
21 | > 10000 | – | <5.00 | 42 | O=C1c2cc(COc3ccccc3)nn2CCN1c1ncccn1 [Example 77]
22 | 660 | 56 | – | – | COc1cncc(N2CCn3nc(COc4ccccn4)cc3C2=O)n1 [Example 213]
23 | > 30200 | – | <4.52 | 23 | CC1CN(c2ccc(F)cc2)C(=O)c2cc(COc3ccccn3)nn21 (single isomer, unassigned) [Example 240]

Row | EC50 [nM] | Emax [%] | pEC50 | Emax (%) | SMILES
24 | 260 | – | 6.59 | 62 | COc1nccc(N2CCn3nc(COc4ccc(F)cc4)cc3C2=O)n1 [Example 227]
25 | 40 | – | 7.40 | 71 | CN(C)c1nc(N2CCn3nc(COc4ccccc4)cc3C2=O)ccc1F [Example 305]
26 | 620 | 50 | – | – | COc1cc(N2CCn3nc(COc4ccccc4)cc3C2=O)nnc1Cl [Example 296]
27 | 891 | – | 6.05 | 32 | Cc1c(COc2ccccc2)nn2c1C(=O)N(c1ccc(F)cc1)CC2 [Example 262]
28 | 1200 | – | 5.92 | 87 | O=C1c2cc(COc3ccccc3)nn2C(CO)CN1c1ccc(F)cc1 (racemic) [Example 263]
29 | 355 | – | 6.45 | 61 | Cc1ccnc(OCc2cc3n(n2)CCN(c2ccc(F)cc2)C3=O)c1 [Example 184]
30 | 60 | – | 7.22 | 71 | Cc1cccc(N2C(=O)c3cc(COc4ccccc4)nn3CC2C)c1 (stereo not shown) [Example 153]
31 | 178 | – | 6.75 | 72 | Cc1ccc(F)c(N2CCn3nc(COc4ccccc4)cc3C2=O)n1 [Example 88]
32 | 741 | – | 6.13 | 56 | CC1Cn2nc(COc3ccccc3)cc2C(=O)N1CC1CC1 (stereo not shown) [Example 136]
33 | 3240 | – | 5.49 | 36 | Cc1nccc(OCc2cc3n(n2)CCN(c2ccc(F)cc2)C3=O)n1 [Example 182]
34 | 32 | – | 7.49 | 68 | O=C1c2cc(COc3ccccc3)nn2CCN1c1ccc2nsnc2c1 [Example 371]
35 | 1410 | – | 5.85 | 59 | COc1nccc(N2C(=O)c3cc(COc4ccccc4)nn3CC2C)n1 (stereo not shown) [Example 145]
36 | 309 | – | 6.51 | 71 | Cc1cncc(N2CCn3nc(COc4ccccc4)cc3C2=O)n1 [Example 92]
37 | > 10000 | 55 | – | – | O=C1c2cc(COc3ccccc3)nn2CCN1c1ccc2nccnc2n1 [Example 373]
38 | 190 | 66 | – | – | O=C1c2cc(COc3ccccc3)nn2CCN1c1ccc2cccnc2c1 [Example 360]
39 | 2240 | – | 5.65 | 69 | O=C1NCCn2nc(COc3ccccc3)cc21 [Example 1]
40 | 209 | – | 6.68 | 76 | Cc1ccc(N2CCn3nc(COc4ccccc4)cc3C2=O)nc1 [Example 16]
41 | 65 | – | 7.19 | 68 | Cc1ccc(F)cc1N1CCn2nc(COc3ccccc3)cc2C1=O [Example 61]
42 | 3090 | 69 | – | – | O=C1c2cc(COc3cccnc3)nn2CCN1c1ccc(F)cc1 [Example 158]
43 | 56 | – | 7.25 | 78 | CC1Cn2nc(COc3cccc(F)c3)cc2C(=O)N1c1ccc(F)cc1 (stereo not shown) [Example 244]
44 | 263 | – | 6.58 | 64 | O=C1c2cc(COc3ccc(F)cc3)nn2CCN1CC1CC1 [Example 167]
45 | 537 | – | 6.27 | 72 | COc1nc(N2C(=O)c3cc(COc4ccccc4)nn3CC2C)ncc1F (stereo not shown) [Example 147]
46 | 107 | – | 6.97 | 68 | O=C1c2cc(COc3ccccc3)nn2C(F)CN1c1ccc(F)cc1 (single isomer, unassigned) [Example 273]
